The values below come from publication PMC11707430, “Novel antibiotics against Staphylococcus aureus without detectable resistance by targeting proton motive force and FtsH” (MedComm, 2025).

Structures are written as SMILES. Converted amounts (≈) assume the structure as drawn.

Assay [1] relates to S. aureus ATCC 43300. In words: Periprosthetic joint infection (PJI) model. The following applies: day 7, alone or in combination, i.p. It counts as in vivo, ICR mice.
Assay [2] has as its system S. aureus. Kind of assay: Peritonitis-sepsis model. The following applies: single use, i.p., 24 h postinfection, vs vehicle. It counts as in vivo, ICR mice. The protocol:
Peritonitis-sepsis model. Six to seven-week-old female ICR mice were included. […] Mice were injected with 500 μL of the suspension in the presence of 5% mucin by i.p.. An hour post-infection, the mice were administered with: 1) EL+ethanol, 2) […]-0546 (30 mg/kg), and 3) STK848198 (30 mg/kg) alone or in combination with ampicillin (AMP, 25 mg/kg)^38 or amikacin (AMK, 25 mg/kg).

Assay [3] deals with S. aureus. In words: MIC determination by microbroth dilution. It counts as cell-based, Staphylococcus aureus. The following applies: for antimicrobial activity (in words): structure-activity relationship of C218-0546 analogs (Figure S1). The protocol: Minimal inhibitory concentration (MIC) determination. The detection of MIC was performed by the microbroth dilution method with reference to the previously report by Wang et al^2. Briefly, the fresh bacterial suspension was adjusted to a McF standard equivalent of 0.5 (~1.5 × 10^8 CFU/mL) and then 100-fold diluted with MH broth. Fifty microliters of bacterial suspension with equal volume of serially diluted compounds (1-128 µg/mL) were added into a 96-well cell plate (Corning Costar, the United States) and incubated at 37°C for 16-18 h. The bacterial suspension without compounds was used as a negative control. The lowest concentration that inhibited visible bacterial growth was considered as the value of MIC.

Assay [4] deals with S. aureus ATCC 43300. In words: One-step resistance assay (spontaneous resistance frequency). Format: cell-based. The following applies: 1◊MIC. How it is done:
Resistance inducing assay. Consecutive and one-step resistance experiments were performed to assess the resistance-inducing ability of the compounds against S. aureus. For consecutive resistance assay, the MICs of compounds and ciprofloxacin (CIP) were determined on the first day. […] Subsequently, the equal volume of bacterial suspension was added to the serial concentrations of compounds or CIP into a 96-well plate, the new MICs were recorded every 24h for a total of 15 days. After 15 days of passages, the CIP-induced resistant S. aureus strains were obtained. And the antimicrobial activity of the compounds against the CIP-induced strains were assessed by microdilution assay as described above. For one-step resistance assay, overnight cultured S. aureus was adjusted to a final concentration of approximately OD630=0.5 with sterile saline. One hundred microliters of the bacterial suspension were uniformly spread in pre-prepared MH agar plates containing a specific concentration of compounds. Rifampicin (RFP) was used as a positive control. The viable cells were counted on the plates after incubation at 37°C for 48h. The frequency of spontaneous drug resistance mutation was defined as the ratio of the number of resistant CFU counts to the initial CFU counts^3.

For the compound `CC1(C)S[C@@H]2[C@H](NC(=O)[C@H](N)c3ccccc3)C(=O)N2[C@H]1C(=O)O` [AMP, ampicillin, reference compound], the “bacterial loads in the joint and its surrounding tissue” value in the assay with S. aureus ATCC 43300 [1] is recorded as “reduce the bacterial loads”. The “bacterial loads in organs” value in the assay on S. aureus [2] is recorded as “no statistical difference”.
For `Cc1ccc(CNC(=O)c2c[nH]n3c(=O)c(Cc4ccc(Cl)cc4)c(C)nc23)cc1` [C218-0468], in the assay with S. aureus [3], the “antimicrobial activity (in words)” value is on record as “did not optimize the MIC values”.
For `CCCCCCCCCC(=O)N[C@@H](Cc1c[nH]c2ccccc12)C(=O)N[C@H](CC(N)=O)C(=O)N[C@@H](CC(=O)O)C(=O)N[C@@H]1C(=O)NCC(=O)N[C@@H](CCCN)C(=O)N[C@@H](CC(=O)O)C(=O)N[C@H](C)C(=O)N[C@@H](CC(=O)O)C(=O)NCC(=O)N[C@H](CO)C(=O)N[C@@H]([C@H](C)CC(=O)O)C(=O)N[C@@H](CC(=O)c2ccccc2N)C(=O)O[C@@H]1C` [DAP, daptomycin], the MIC turned out to be 1 µg/mL (≈ 0.617 µM) with S. aureus [3] (ATCC 25923); 1 µg/mL (≈ 0.617 µM) in the assay on S. aureus [3] (ATCC 43300); 1 µg/mL (≈ 0.617 µM) against S. aureus [3] (LZB1); 2 µg/mL (≈ 1.23 µM) against S. aureus [3] (Newman); 2 µg/mL (≈ 1.23 µM) against S. aureus [3] (R0645); 2 µg/mL (≈ 1.23 µM) against S. aureus [3] (R82174). Moreover, the minimum inhibitory concentration (MIC) against S. aureus [3] (SA1901) was determined as 1 µg/mL (≈ 0.617 µM); against S. aureus [3] (SA1902), 1 µg/mL (≈ 0.617 µM); against S. aureus [3] (SA1909), 1 µg/mL (≈ 0.617 µM); against S. aureus [3] (SA1910), 1 µg/mL (≈ 0.617 µM); in the assay on S. aureus [3] (SA1911) it was 2 µg/mL (≈ 1.23 µM); with S. aureus [3] (SA1912), 1 µg/mL (≈ 0.617 µM). In addition, the minimal inhibitory concentration (MIC) with S. aureus [3] (SA1913) was 1 µg/mL (≈ 0.617 µM); against S. aureus [3] (SA1914) it was 2 µg/mL (≈ 1.23 µM); against S. aureus [3] (SA1915) it was 1 µg/mL (≈ 0.617 µM); with S. aureus [3] (SAJ1 (VISA)), 32 µg/mL (≈ 19.7 µM); in the assay with S. aureus [3] (USA300), 1 µg/mL (≈ 0.617 µM).
For `CO[C@H]1/C=C/O[C@@]2(C)Oc3c(C)c(O)c4c(O)c(c(/C=N/N5CCN(C)CC5)c(O)c4c3C2=O)NC(=O)/C(C)=C\C=C\[C@H](C)[C@H](O)[C@@H](C)[C@@H](O)[C@@H](C)[C@H](OC(C)=O)[C@@H]1C` [RFP, Rifampicin], the “Spontaneous resistance frequency (mean±SD)” value in the assay with S. aureus ATCC 43300 [4] is “(2.83±2.9) ×10^-7”.
Take `Cc1nc2c(C#N)c[nH]n2c(=O)c1Cc1ccccc1` [STK584829]: in the assay with S. aureus [3], the “antimicrobial activity (in words)” value is “vanished antimicrobial activity”.
For `Cc1nc2oc3ccccc3c(=O)c2c2nc3ccccc3n12` [STK585953], the “antimicrobial activity (in words)” value with S. aureus [3] is “reduce the antimicrobial ability”.
As to `CN[C@H](CC(C)C)C(=O)N[C@H]1C(=O)N[C@@H](CC(N)=O)C(=O)N[C@H]2C(=O)N[C@H]3C(=O)N[C@H](C(=O)N[C@H](C(=O)O)c4cc(O)cc(O)c4-c4cc3ccc4O)[C@H](O)c3ccc(c(Cl)c3)Oc3cc2cc(c3O[C@@H]2O[C@H](CO)[C@@H](O)[C@H](O)[C@H]2O[C@H]2C[C@](C)(N)[C@H](O)[C@H](C)O2)Oc2ccc(cc2Cl)[C@H]1O` [VAN, vancomycin], the MIC in the assay on S. aureus [3] (ATCC 25923) turned out to be 1 µg/mL (≈ 0.69 µM); against S. aureus [3] (ATCC 43300), 1 µg/mL (≈ 0.69 µM); in the assay with S. aureus [3] (LZB1), 1 µg/mL (≈ 0.69 µM); against S. aureus [3] (Newman), 2 µg/mL (≈ 1.38 µM); against S. aureus [3] (R0645), 1 µg/mL (≈ 0.69 µM); against S. aureus [3] (R82174) it was 1 µg/mL (≈ 0.69 µM). Also, the MIC in the assay on S. aureus [3] (SA1901) was 1 µg/mL (≈ 0.69 µM); in the assay on S. aureus [3] (SA1902) it was 0.5 µg/mL (≈ 0.345 µM); in the assay on S. aureus [3] (SA1909), 1 µg/mL (≈ 0.69 µM); with S. aureus [3] (SA1910), 1 µg/mL (≈ 0.69 µM); against S. aureus [3] (SA1911), 1 µg/mL (≈ 0.69 µM); against S. aureus [3] (SA1912), 1 µg/mL (≈ 0.69 µM). For the same compound, the MIC worked out at 1 µg/mL (≈ 0.69 µM) against S. aureus [3] (SA1913); 1 µg/mL (≈ 0.69 µM) against S. aureus [3] (SA1914); 1 µg/mL (≈ 0.69 µM) against S. aureus [3] (SA1915); 4 µg/mL (≈ 2.76 µM) against S. aureus [3] (SAJ1 (VISA)); 1 µg/mL (≈ 0.69 µM) against S. aureus [3] (USA300).
